Reference: ChEMBL document CHEMBL1154410, “In vivo efficacy of a novel oxazolidinone compound in two mouse models of infection” (Antimicrob Agents Chemother, 2007)
Converted amounts (≈) assume the structure as drawn. The source made the active and inactive calls. The calls are words filed in the database; no cut-off is given here.

Legend:
Staphylococcus aureus [1] = test: Antibacterial activity against methicillin-susceptible Staphylococcus aureus Smith infected in C3H mouse assessed as eradication at 25 mg/kg/day, po administered within 15 mins of infection assessed per gram of kidney measured after 48 hrs by organ burden assay relative to control; assay type: functional
Staphylococcus aureus [2] = test: Antibacterial activity against methicillin-susceptible Staphylococcus aureus Smith infected in C3H mouse assessed as eradication at 12.5 mg/kg/day, po administered within 15 mins of infection assessed per gram of kidney measured after 48 hrs by organ burden assay relative to control; assay type: functional
Staphylococcus aureus [3] = test: Antibacterial activity against methicillin-susceptible Staphylococcus aureus Smith infected in C3H mouse assessed as eradication at 6.25 mg/kg/day, po administered within 15 mins of infection assessed per gram of kidney measured after 48 hrs by organ burden assay relative to control; assay type: functional
Staphylococcus aureus [4] = test: Antibacterial activity against methicillin-susceptible Staphylococcus aureus Smith infected in C3H mouse assessed as eradication at 3.12 mg/kg/day, po administered within 15 mins of infection assessed per gram of kidney measured after 48 hrs by organ burden assay relative to control; assay type: functional
Staphylococcus aureus [5] = test: Antibacterial activity against methicillin-susceptible Staphylococcus aureus Smith infected in C3H mouse assessed as reduction in log number of CFU at 25 mg/kg/day, po administered within 15 mins of infection measured after 48 hrs by organ burden assay relative to control; assay type: functional
Staphylococcus aureus [6] = test: Antibacterial activity against methicillin-susceptible Staphylococcus aureus Smith infected in C3H mouse assessed as reduction in log number of CFU at 12.5 mg/kg/day, po administered within 15 mins of infection measured after 48 hrs by organ burden assay relative to control; assay type: functional
Staphylococcus aureus [7] = test: Antibacterial activity against methicillin-susceptible Staphylococcus aureus Smith infected in C3H mouse assessed as reduction in log number of CFU at 6.25 mg/kg/day, po administered within 15 mins of infection measured after 48 hrs by organ burden assay relative to control; assay type: functional
Staphylococcus aureus [8] = test: Antibacterial activity against methicillin-susceptible Staphylococcus aureus Smith infected in C3H mouse assessed as reduction in log number of CFU at 3.12 mg/kg/day, po administered within 15 mins of infection measured after 48 hrs by organ burden assay relative to control; assay type: functional
Staphylococcus aureus [9] = test: Antibacterial activity against methicillin-susceptible Staphylococcus aureus Smith infected in C3H mouse assessed as eradication at 25 mg/kg/day, iv administered within 15 mins of infection assessed per gram of kidney measured after 48 hrs by organ burden assay relative to control; assay type: functional
Staphylococcus aureus [10] = test: Antibacterial activity against methicillin-susceptible Staphylococcus aureus Smith infected in C3H mouse assessed as eradication at 12.5 mg/kg/day, iv administered within 15 mins of infection assessed per gram of kidney measured after 48 hrs by organ burden assay relative to control; assay type: functional
Staphylococcus aureus [11] = test: Antibacterial activity against methicillin-susceptible Staphylococcus aureus Smith infected in C3H mouse assessed as eradication at 6.25 mg/kg/day, iv administered within 15 mins of infection assessed per gram of kidney measured after 48 hrs by organ burden assay relative to control; assay type: functional
Staphylococcus aureus [12] = test: Antibacterial activity against methicillin-susceptible Staphylococcus aureus Smith infected in C3H mouse assessed as eradication at 3.12 mg/kg/day, iv administered within 15 mins of infection assessed per gram of kidney measured after 48 hrs by organ burden assay relative to control; assay type: functional
Staphylococcus aureus [13] = test: Antibacterial activity against methicillin-susceptible Staphylococcus aureus Smith infected in C3H mouse assessed as reduction in log number of CFU at 25 mg/kg/day, iv administered within 15 mins of infection measured after 48 hrs by organ burden assay relative to control; assay type: functional
Staphylococcus aureus [14] = test: Antibacterial activity against methicillin-susceptible Staphylococcus aureus Smith infected in C3H mouse assessed as reduction in log number of CFU at 12.5 mg/kg/day, iv administered within 15 mins of infection measured after 48 hrs by organ burden assay relative to control; assay type: functional
Staphylococcus aureus [15] = test: Antibacterial activity against methicillin-susceptible Staphylococcus aureus Smith infected in C3H mouse assessed as reduction in log number of CFU at 6.25 mg/kg/day, iv administered within 15 mins of infection measured after 48 hrs by organ burden assay relative to control; assay type: functional
Staphylococcus aureus [16] = test: Antibacterial activity against methicillin-susceptible Staphylococcus aureus Smith infected in C3H mouse assessed as reduction in log number of CFU at 3.12 mg/kg/day, iv administered within 15 mins of infection measured after 48 hrs by organ burden assay relative to control; assay type: functional
Staphylococcus aureus [17] = test: Antibacterial activity against methicillin-susceptible Staphylococcus aureus Smith infected in po dosed C3H mouse localized infection model assessed as reduction of number of CFU per gram of kidney administered 15 mins after infection measured after 48 hrs relative to control; assay type: functional
Staphylococcus aureus [18] = test: Antibacterial activity against methicillin-susceptible Staphylococcus aureus Smith infected in iv dosed C3H mouse localized infection model assessed as reduction of number of CFU per gram of kidney administered 15 mins after infection measured after 48 hrs relative to control; assay type: functional
Staphylococcus aureus [19] = test: Antibacterial activity against 3.6 x 10^8 CFU methicillin-resistant Staphylococcus aureus COL by dilution susceptibility test; assay type: functional
Staphylococcus aureus [20] = test: (§1) Antibacterial activity against methicillin-resistant Staphylococcus aureus COL infected in po dosed DBA/2 mouse localized infection model assessed as reduction of number of CFU per gram of thigh administered 2 hrs postinfection thrice daily for 1 day and once daily for 5 days measured after 48 hrs relative to control; assay type: functional
Staphylococcus aureus [21] = test: as §1, with “in iv” for “in po”, “for 1 day” for “for 5 days”; assay type: functional
Staphylococcus aureus [22] = test: as §1, with “against linezolid-resistant” for “against”, “aureus” for “aureus COL”, “C3H” for “DBA/2”; assay type: functional; conditions: Thigh muscle
Staphylococcus aureus [23] = test: (§2) Antibacterial activity against methicillin-resistant Staphylococcus aureus COL infected in po dosed DBA/2 mouse localized infection model assessed as log reduction in CFU per gram of thigh at 10 mg/kg, po administered 2 hrs postinfection thrice daily for 1 day and once daily for 5 days measured after 48 hrs by organ burden assay relative to control; assay type: functional
Staphylococcus aureus [24] = test: as §2, with “5” for “10”; assay type: functional
Staphylococcus aureus [25] = test: as §2, with “mg/kg, iv” for “mg/kg, po”, “for 1 day” for “for 5 days”; assay type: functional
Staphylococcus aureus [26] = test: as §2, with “at 5” for “at 10”, “mg/kg, iv” for “mg/kg, po”, “for 1 day” for “for 5 days”; assay type: functional
[27] = Fraction unbound in Staphylococcus aureus-infected mouse localized thigh infection model plasma at 25 mg/kg; assay type: ADME, organism-based; set-up: dose 25 mg/kg; conditions: read-out: PPB
[28] = Bioavailability in Staphylococcus aureus-infected mouse localized thigh infection model at 25 mg/kg; assay type: ADME, organism-based; conditions: in vivo
Staphylococcus aureus [29] = test: Antibacterial activity against 10^9 CFU linezolid-resistant methicillin-resistant Staphylococcus aureus by dilution susceptibility test; assay type: functional
Staphylococcus aureus [30] = test: Antibacterial activity against methicillin-resistant Staphylococcus aureus; assay type: functional, organism-based
Enterococcus = test: Antibacterial activity against vancomycin-resistant Enterococcus spp.; assay type: functional, organism-based
Streptococcus pneumoniae = test: Antibacterial activity against penicillin-resistant Streptococcus pneumoniae; assay type: functional, organism-based
Haemophilus influenzae = test: Antibacterial activity against Haemophilus influenzae by dilution susceptibility test; assay type: functional
Moraxella catarrhalis = test: Antibacterial activity against Moraxella catarrhalis by dilution susceptibility test; assay type: functional
Staphylococcus aureus [31] = test: Antibacterial activity against methicillin-susceptible Staphylococcus aureus Smith by dilution susceptibility test; assay type: functional
Staphylococcus aureus [32] = test: Antibacterial activity against methicillin-susceptible Staphylococcus aureus Smith infected in C3H mouse assessed as renal sterilization at 25 mg/kg/day, po administered 15 mins postinfection; assay type: functional, organism-based
Staphylococcus aureus [33] = test: Antibacterial activity against linezolid-resistant methicillin-resistant Staphylococcus aureus infected in C3H mouse localized infection model assessed as log reduction in CFU per gram of thigh at 100 mg/kg measured after 48 hrs by organ burden assay relative to control; assay type: functional

Compound | Activity (Staphylococcus aureus [1]) | Activity (Staphylococcus aureus [2]) | Activity (Staphylococcus aureus [3]) | Activity (Staphylococcus aureus [4]) | Activity (Staphylococcus aureus [5]) | Activity (Staphylococcus aureus [6]) | Activity (Staphylococcus aureus [7]) | Activity (Staphylococcus aureus [8]) | Activity (Staphylococcus aureus [9]) | Activity (Staphylococcus aureus [10]) | Activity (Staphylococcus aureus [11]) | Activity (Staphylococcus aureus [12]) | Activity (Staphylococcus aureus [13]) | Activity (Staphylococcus aureus [14]) | Activity (Staphylococcus aureus [15]) | Activity (Staphylococcus aureus [16]) | ED99 (Staphylococcus aureus [17]) | ED99 (Staphylococcus aureus [18]) | MIC (Staphylococcus aureus [19]) | ED99 (Staphylococcus aureus [20]) | further results
N#C[C@]1(c2ccc(-c3ccc(N4C[C@H](Cn5ccnn5)OC4=O)cc3F)cn2)[C@@H]2CNC[C@@H]21 | 0% | 0% | 0% | 0% | 5.23 | 2.93 | 2.63 | -0.26 | 0% | 0% | 0% | 0% | 4.59 | 4.46 | 2.03 | 0.06 | 4.9 mg/kg | 6.3 mg/kg | 0.125 µg/mL (≈ 0.281 µM) | 4.2 mg/kg | ED99 (Staphylococcus aureus [21]): 5.6 mg/kg; ED99 (Staphylococcus aureus [22]): 10.2 mg/kg; log10cfu (Staphylococcus aureus [23]): 3.7; log10cfu (Staphylococcus aureus [24]): 2; log10cfu (Staphylococcus aureus [25]): 1.5; log10cfu (Staphylococcus aureus [26]): 2.4; fraction unbound [27]: 0.19; bioavailability [28]: 30%; MIC (Staphylococcus aureus [29]): 1 µg/mL (≈ 2.24 µM); Activity (Staphylococcus aureus [30]): Active; Activity (Enterococcus): Active; Activity (Streptococcus pneumoniae): Active; MIC90 (Haemophilus influenzae): 2 µg/mL (≈ 4.49 µM); MIC90 (Moraxella catarrhalis): 0.5 µg/mL (≈ 1.12 µM); MIC (Staphylococcus aureus [31]): 0.125 µg/mL (≈ 0.281 µM)
CC(=O)NC[C@H]1CN(c2ccc(N3CCOCC3)c(F)c2)C(=O)O1 [LINEZOLID] | 100% | 0% | 0% | 0% | 6.07 | 2.71 | 1.44 | -0.53 | 0% | 0% | 0% | 0% | 4.27 | 1.44 | -0.12 | -0.27 | 7 mg/kg | 12 mg/kg | 1 µg/mL (≈ 2.96 µM) | 5.2 mg/kg | Activity (Staphylococcus aureus [32]): Active; ED99 (Staphylococcus aureus [21]): 6.9 mg/kg; ED99 (Staphylococcus aureus [22]): 85 mg/kg; log10cfu (Staphylococcus aureus [23]): 3.7; log10cfu (Staphylococcus aureus [24]): 2; log10cfu (Staphylococcus aureus [25]): 1.5; log10cfu (Staphylococcus aureus [26]): 2.4; fraction unbound [27]: 0.68; MIC (Staphylococcus aureus [29]): 64 µg/mL (≈ 190 µM); log10cfu (Staphylococcus aureus [33]): 2.5
